Measurements from ChEMBL document CHEMBL3588836, “Development of Quinoline-2,4(1H,3H)-diones as Potent and Selective Ligands of the Cannabinoid Type 2 Receptor” (J Med Chem, 2015).

Experiments:
CHO [1] = test: Selectivity index, ratio of EC50 for CB1R (unknown origin) CHO cells stably expressing Galpha16 to EC50 for CB2R (unknown origin) CHO cells stably expressing Galpha16; format: cell-based; details: Homo sapiens
Cannabinoid receptor 2 [2] = target: T1, Cannabinoid receptor 2 (Homo sapiens, UniProt P34972); test: Agonist activity at CB2R (unknown origin) CHO cells stably expressing Galpha16 assessed as increase in intracellular calcium level by microplate reader based assay relative to CP55940; format: functional, cell-based
Cannabinoid receptor 1 [3] = target: T2, Cannabinoid receptor 1 (Homo sapiens, UniProt P21554); test: Agonist activity at CB1R (unknown origin) CHO cells stably expressing Galpha16 assessed as increase in intracellular calcium level by microplate reader based assay; format: functional, cell-based
Cannabinoid receptor 2 [4] = target: T1, Cannabinoid receptor 2; test: Agonist activity at CB2R (unknown origin) CHO cells stably expressing Galpha16 assessed as increase in intracellular calcium level by microplate reader based assay; format: functional, cell-based
Cannabinoid receptor 2 [5] = target: T1, Cannabinoid receptor 2; test: Antagonist activity against CB2R (unknown origin) CHO cells stably expressing Galpha16 assessed as inhibition of CP55940-induced increase in intracellular calcium level pre-treated 10 mins before CP55940 stimulation by microplate reader based assay; format: functional, cell-based
Cannabinoid receptor 1 [6] = target: T2, Cannabinoid receptor 1; format: functional, cell-based, CHO
Cannabinoid receptor 2 [7] = target: T1, Cannabinoid receptor 2; test: Antagonist activity against CB2R (unknown origin) CHO cells stably expressing Galpha16 assessed as inhibition of CP55940-induced increase in intracellular calcium level pre-treated 10 mins before CP55940 stimulation by microplate reader based assay relative to […]; format: functional, cell-based
CHO [8] = test: Selectivity index, ratio of IC50 for CB1R (unknown origin) CHO cells stably expressing Galpha16 to IC50 for CB2R (unknown origin) CHO cells stably expressing Galpha16; format: cell-based; details: Homo sapiens

T2 sequence (P21554 whole entry): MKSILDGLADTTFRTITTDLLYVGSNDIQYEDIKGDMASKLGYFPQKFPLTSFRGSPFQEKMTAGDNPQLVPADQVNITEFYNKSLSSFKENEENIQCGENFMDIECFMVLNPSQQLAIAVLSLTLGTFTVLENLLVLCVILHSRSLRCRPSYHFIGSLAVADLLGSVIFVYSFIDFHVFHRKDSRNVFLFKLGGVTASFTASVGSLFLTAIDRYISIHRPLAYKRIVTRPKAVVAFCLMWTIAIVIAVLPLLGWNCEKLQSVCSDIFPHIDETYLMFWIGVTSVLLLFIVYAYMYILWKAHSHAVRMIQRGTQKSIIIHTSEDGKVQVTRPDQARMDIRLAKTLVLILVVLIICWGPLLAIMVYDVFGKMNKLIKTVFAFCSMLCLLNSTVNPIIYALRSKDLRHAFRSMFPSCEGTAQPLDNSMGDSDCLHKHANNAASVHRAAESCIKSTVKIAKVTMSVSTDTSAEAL
T1 sequence (P34972 whole entry): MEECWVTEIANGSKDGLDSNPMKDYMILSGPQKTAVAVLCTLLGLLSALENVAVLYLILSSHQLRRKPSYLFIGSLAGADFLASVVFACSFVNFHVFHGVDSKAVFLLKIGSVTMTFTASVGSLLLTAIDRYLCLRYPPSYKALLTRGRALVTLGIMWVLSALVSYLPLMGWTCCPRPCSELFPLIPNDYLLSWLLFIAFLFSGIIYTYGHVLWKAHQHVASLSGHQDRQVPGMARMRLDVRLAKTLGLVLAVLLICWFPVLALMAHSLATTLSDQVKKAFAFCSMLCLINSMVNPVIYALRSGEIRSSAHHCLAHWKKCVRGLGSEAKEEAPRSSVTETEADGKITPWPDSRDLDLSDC

Row | SMILES | Ratio EC50 (CHO [1]) | Emax (Cannabinoid receptor 2 [2]) | EC50 (Cannabinoid receptor 1 [3]) | EC50 (Cannabinoid receptor 2 [4]; read-out: EC50) | EC50 (Cannabinoid receptor 2 [4]; read-out: pEC50 (converted)) | IC50 (Cannabinoid receptor 2 [5]) | IC50 (Cannabinoid receptor 1 [6]) | Emax (Cannabinoid receptor 2 [7]) | Ratio IC50 (CHO [8])
1 | CCCCN/C=C1\C(=O)c2cccc(C)c2N(CCCC)C1=O | > 110 | 64.7% | > 10 µM | 0.0907 µM | 0.091 µM | – | – | – | –
2 | Cc1cccc2c1N(CC1CC1)C(=O)/C(=C/NC1CCCCC1)C2=O | > 14.9 | 111% | > 10 µM | 0.67 µM | – | – | – | – | –
3 | CCCCN1C(=O)/C(=C/NC23CC4CC(CC(C4)C2)C3)C(=O)c2cccc(C)c21 | > 31.5 | 137% | > 10 µM | 0.317 µM | – | – | – | – | –
4 | C=CCCN1C(=O)/C(=C/NC(C)(C)C)C(=O)c2cccc(C)c21 | > 133 | 92.6% | > 10 µM | 0.0753 µM | – | – | – | – | –
5 | CCCCN1C(=O)/C(=C/NC2CCCCC2)C(=O)c2cccc(OC)c21 | > 7.04 | 86.1% | > 10 µM | 1.42 µM | – | – | – | – | –
6 | CCCCCN1C(=O)/C(=C/NC2CCCCC2)C(=O)c2cc(C(F)(F)F)ccc21 | – | – | – | – | – | > 10 µM | > 10 µM | – | –
7 | CCCCN1C(=O)/C(=C/NC(CC)CC)C(=O)c2cccc(C)c21 | > 88.5 | 137% | > 10 µM | 0.113 µM | 0.112 µM | – | – | – | –
8 | CCCCCN1C(=O)/C(=C/NC2CCCCC2)C(=O)c2cc(C)ccc21 | – | – | – | – | – | > 10 µM | > 10 µM | – | –
9 | CCCCN1C(=O)/C(=C/NC2CCCCC2)C(=O)c2ccccc21 | > 6.33 | 185% | > 10 µM | 1.58 µM | – | – | – | – | –
10 | CCCCCN1C(=O)/C(=C/NC2CCCCC2)C(=O)c2ccccc21 | > 21.2 | 101% | > 10 µM | 0.472 µM | – | – | – | – | –
11 | CCCCN1C(=O)/C(=C/NCCC)C(=O)c2cccc(C)c21 | – | – | > 10 µM | > 10 µM | – | – | – | – | –
12 | CCCCCN1C(=O)/C(=C/NC2CCCCC2)C(=O)c2cc(Cl)ccc21 | – | – | – | – | – | 1.51 µM | > 10 µM | 102% | > 6.62
13 | CCCCN1C(=O)/C(=C/NC2CC2)C(=O)c2cccc(C)c21 | > 19.9 | 81.8% | > 10 µM | 0.503 µM | – | – | – | – | –
14 | CCCCCN1C(=O)/C(=C/NC2CCCCC2)C(=O)c2cc(OC)ccc21 | – | – | – | – | – | 1.65 µM | > 10 µM | 98.3% | > 6.06
15 | CCCCCN1C(=O)/C(=C/NC2CCCCC2)C(=O)c2cccc(OC)c21 | – | – | > 10 µM | > 10 µM | – | – | – | – | –
16 | CCCCCN1C(=O)/C(=C/NC2CCCCC2)C(=O)c2cc(Cl)cc(C)c21 | – | – | – | – | – | 1.48 µM | > 10 µM | 95% | > 6.76
17 | CCCCCN1C(=O)/C(=C/NC2CCCCC2)C(=O)c2cc(OC)cc(OC)c21 | – | – | – | – | – | > 10 µM | > 10 µM | – | –
18 | CCCCCN1C(=O)/C(=C/NC2CCCCC2)C(=O)c2ccc(C)cc21 | – | – | – | – | – | 0.00903 µM | > 10 µM | 96.3% | > 1110
19 | CCCCN1C(=O)/C(=C/NCc2ccc(F)cc2)C(=O)c2cccc(C)c21 | – | – | > 10 µM | > 10 µM | – | – | – | – | –
20 | CCCCN1C(=O)/C(=C/NC(C)(C)CO)C(=O)c2cccc(C)c21 | 13.5 | 127% | 0.557 µM | 0.0413 µM | 0.041 µM | – | – | – | –
21 | CCCCN1C(=O)/C(=C/NC(C)CCC)C(=O)c2cccc(C)c21 (stereo not given) | > 86.2 | 53.6% | > 10 µM | 0.116 µM | – | – | – | – | –
22 | CCCCN1C(=O)/C(=C/NC(C)(C)CC)C(=O)c2cccc(C)c21 | 26.8 | 158% | 2.02 µM | 0.0753 µM | 0.075 µM | – | – | – | –
23 | CCCCCN1C(=O)/C(=C/NC2CCCCC2)C(=O)c2c(OC)cccc21 | – | – | > 10 µM | > 10 µM | – | – | – | – | –
24 | CCCCCN1C(=O)/C(=C/NC2CCCCC2)C(=O)c2ccc(Cl)cc21 | – | – | – | – | – | > 10 µM | > 10 µM | – | –
25 | CCCCN1C(=O)/C(=C/NN2CCOCC2)C(=O)c2cccc(C)c21 | > 21 | 78.7% | > 10 µM | 0.477 µM | – | – | – | – | –
26 | CCCCCN1C(=O)/C(=C/NC2CCCCC2)C(=O)c2ccc(OC)cc21 | – | – | – | – | – | 0.194 µM | > 10 µM | 97.4% | > 51.5
27 | CCCCN1C(=O)/C(=C/NCc2cccnc2)C(=O)c2cccc(C)c21 | – | – | > 10 µM | > 10 µM | – | – | – | – | –
28 | CCCCCCN1C(=O)/C(=C/NC2CCCCC2)C(=O)c2cc(OC)ccc21 | – | – | – | – | – | > 10 µM | > 10 µM | – | –
29 | CCCN1C(=O)/C(=C/NC2CCCCC2)C(=O)c2cccc(C)c21 | > 20.1 | 68.2% | > 10 µM | 0.497 µM | – | – | – | – | –
